Reference: patent US4582823A, “Method for treating schizophrenia and medicaments therefor” (Warner-Lambert Company, priority 1984, dated 1986)
Entries after “also recorded” stand apart in the source; their conditions may differ. Where two headings read alike, the source gives them in different places.

Experiments:
Sprague-Dawley male rats = assay: rat locomotor activity (darkened actophotometer, 30 minutes); type: in vivo; details: for Locomotor Activity, % Of Control ± SEM: 1 hr before test
Method: Sprague-Dawley male rats were used.
Each animal was then placed in a darkened actophotometer and locomotor activity was recorded automatically by a microcomputer for 30 minutes. Locomotor activity data were compared to the mean response of vehicle treated control and were expressed as percentage of activity relative to control.

[1] = system: haloperidol-induced dystonia in Cebus monkeys; details: for # showing dystonia/Total: time 0
Method: (§1) On test days, animals were given N^6 -(2,2-diphenylethyl)adenosine before or after haloperidol. Drugs were prepared as suspensions in 0.2% Methocel for oral and IP injection. Solutions for IM injections of haloperidol were made using lactic acid and of the adenosine using ethanol.

[2] = system: haloperidol-induced dystonia in Cebus monkeys; assay: Effect of N^6-(2,2-diphenylethyl)adenosine and haloperidol given together orally (capsule or gavage) on dystonia in Cebus monkeys; details: for # showing dystonia/Total: haloperidol 0.5 PO capsule, time 0
Method: as §1

[3] = system: haloperidol-induced dystonia in Cebus monkeys; assay: Attempted reversal of haloperidol-induced dystonia in sensitized Cebus monkeys; type: in vivo, Cebus monkeys (Cebus appella); details: for # Reversed/Total: adenosine 8 mpk IM
Method: as §1

For `O=C(CCCN1CCC(O)(c2ccc(Cl)cc2)CC1)c1ccc(F)cc1` [Haloperidol, reference compound], the “Locomotor Activity, % Of Control ± SEM” value (Sprague-Dawley male rats; oral, Vehicle 5 ml/kg + HPD 0.1 mg/kg, n=8 (run with 3 mg/kg adenosine)) was 80.4 ± 10.2 % Of Control, the “Locomotor Activity, % Of Control ± SEM” value (Sprague-Dawley male rats; oral, Vehicle 5 ml/kg + HPD 0.1 mg/kg, n=9 (run with 1 mg/kg adenosine)) was 108.6 ± 8.6 % Of Control and the “Locomotor Activity, % Of Control ± SEM” value (Sprague-Dawley male rats; oral, Vehicle 5 ml/kg + HPD 0.3 mg/kg, n=9 (run with 1 mg/kg adenosine)) was 46.0 ± 7.2 % Of Control. For the same molecule, the “Locomotor Activity, % Of Control ± SEM” value (Sprague-Dawley male rats; oral, Vehicle 5 ml/kg + HPD 0.3 mg/kg, n=17 (run with 3 mg/kg adenosine)) was 44.0 ± 4.5 % Of Control, the “Locomotor Activity, % Of Control ± SEM” value (Sprague-Dawley male rats; oral, Vehicle 5 ml/kg + HPD 1.0 mg/kg, n=9 (run with 1 mg/kg adenosine)) was 21.8 ± 2.9 % Of Control and the “Locomotor Activity, % Of Control ± SEM” value (Sprague-Dawley male rats; oral, Vehicle 5 ml/kg + HPD 1.0 mg/kg, n=17 (run with 3 mg/kg adenosine)) was 18.0 ± 2.5 % Of Control. For the same molecule, the “Locomotor Activity, % Of Control ± SEM” value (Sprague-Dawley male rats; oral, Vehicle 5 ml/kg + HPD 3.0 mg/kg, n=9 (run with 3 mg/kg adenosine)) was 8.2 ± 2.1 % Of Control, the “dystonic reactions in sensitized monkeys” value ([1]; Cebus monkey, haloperidol 0.2 mpk PO) was “dystonic reactions were consistently manifest” and the “# showing dystonia/Total” value ([1]; adenosine 0 mpk IP, haloperidol 0.05 mpk IM, +30 Min.) was 5/5. The “onset of action (dystonia)” value ([1]; monkey, in vivo) was 3 to 7 min, the “onset of action (dystonia)” value ([1]; monkey, in vivo, po) was 60 to 180 min and the monkeys with dystonia ([2]; haloperidol alone 0.5 mg/kg in a capsule) was 5 of 5. The “# showing dystonia/Total” value ([2]; no adenosine) was 5/5.

For `OC[C@H]1O[C@@H](n2cnc3c(NCC(c4ccccc4)c4ccccc4)ncnc32)[C@H](O)[C@@H]1O` [N^6-(2,2-Diphenylethyl)adenosine], the “effect on haloperidol induced inhibition of rat locomotor activity (conclusion)” value (Sprague-Dawley male rats; combination with haloperidol) was “enhanced haloperidol induced inhibition of rat locomotor activity; also recorded: additive effect in combination with haloperidol”, the “Locomotor Activity, % Of Control ± SEM” value (Sprague-Dawley male rats; oral, adenosine 1 mg/kg + HPD 0.1 mg/kg, n=9) was 92.0 ± 2.8 % Of Control and the “Locomotor Activity, % Of Control ± SEM” value (Sprague-Dawley male rats; oral, adenosine 1 mg/kg + HPD 0.3 mg/kg, n=9) was 40.7 ± 4.9 % Of Control. The “Locomotor Activity, % Of Control ± SEM” value (Sprague-Dawley male rats; oral, adenosine 1 mg/kg + HPD 1.0 mg/kg, n=9) was 10.8 ± 2.6 % Of Control, the “Locomotor Activity, % Of Control ± SEM” value (Sprague-Dawley male rats; oral, adenosine 1 mg/kg + Vehicle 5 ml/kg, n=9) was 93.8 ± 8.9 % Of Control and the “Locomotor Activity, % Of Control ± SEM” value (Sprague-Dawley male rats; oral, adenosine 3 mg/kg + HPD 0.1 mg/kg, n=8) was 49.1 ± 10.0 % Of Control. The “Locomotor Activity, % Of Control ± SEM” value (Sprague-Dawley male rats; oral, adenosine 3 mg/kg + HPD 0.3 mg/kg, n=17) was 21.6 ± 5.0 % Of Control, the “Locomotor Activity, % Of Control ± SEM” value (Sprague-Dawley male rats; oral, adenosine 3 mg/kg + HPD 1.0 mg/kg, n=17) was 9.8 ± 2.1 % Of Control and the “Locomotor Activity, % Of Control ± SEM” value (Sprague-Dawley male rats; oral, adenosine 3 mg/kg + HPD 3.0 mg/kg, n=9) was 4.3 ± 1.3 % Of Control. For the same molecule, the “Locomotor Activity, % Of Control ± SEM” value (Sprague-Dawley male rats; oral, adenosine 3 mg/kg + Vehicle 5 ml/kg, n=17) was 58.7 ± 5.2 % Of Control, the “alteration of haloperidol-induced inhibition of spontaneous locomotion” value (Sprague-Dawley male rats; oral, adenosine 1.0 mg/kg + haloperidol) was “did not significantly alter the dose-related inhibition of spontaneous locomotion caused by haloperidol” and the “enhancement of haloperidol locomotor inhibition” value (Sprague-Dawley male rats; oral, adenosine 3.0 mg/kg + haloperidol 0.1 and 0.3 mg/kg) was “enhanced the locomotor inhibition”. For the same molecule, the alteration of locomotion (Sprague-Dawley male rats; oral, adenosine alone 1.0 mg/kg) was “did not significantly alter locomotion”, the reduction of locomotion (Sprague-Dawley male rats; oral, adenosine alone 3.0 mg/kg) was 50% and the “effect on severity of established dystonia” value ([3]; Cebus monkey, adenosine 8 mpk IM after dystonias induced by haloperidol (IM or PO)) was “no effect on the severity of dystonia”. The “reversal of ongoing dystonia (conclusion)” value ([3]; Cebus monkey, adenosine IM) was “did not reverse ongoing dystonia induced by haloperidol”, the “# Reversed/Total” value ([3]; +30 Min. after haloperidol 0.05 IM) was 0/6 and the “# Reversed/Total” value ([3]; +90 Min. after haloperidol 0.5 PO) was 0/6. For the same molecule, the “animals in which haloperidol-induced dystonia was not blocked” value ([1]; Cebus monkey, adenosine 8 mg/kg IM, haloperidol 0.5 mg/kg PO) was 3/6, the “blocking of haloperidol-induced dystonia by IM route (in words)” value ([1]; Cebus monkey, adenosine IM versus other routes) was “less effective in blocking haloperidol-induced dystonia than when administered by other routes” and the “intensity of dystonia in animals displaying dystonia after combined treatment” value ([1]; Cebus monkey, adenosine IP + haloperidol, relative to absence of the adenosine) was “less intense than those seen in the absence of the adenosine”. For the same molecule, the “prevention of development of dystonia (in words)” value ([1]; Cebus monkey, adenosine IP together with haloperidol PO) was “prevented the development of dystonia in a dose dependent fashion”, the “# showing dystonia/Total” value ([1]; adenosine 0.5 mpk IP, haloperidol 0.5 mpk PO) was 5/5 and the “# showing dystonia/Total” value ([1]; adenosine 1.5 mpk IP, haloperidol 0.5 mpk PO) was 4/6. The “# showing dystonia/Total” value ([1]; adenosine 5 mpk IP, haloperidol 0.05 mpk IM, +30 Min.) was 0/6, the “# showing dystonia/Total” value ([1]; adenosine 5 mpk IP, haloperidol 0.5 mpk PO) was 1/6 and the “# showing dystonia/Total” value ([1]; adenosine 20 mpk IP, haloperidol 0.05 mpk IM, +30 Min.) was 0/6. For the same molecule, the “# showing dystonia/Total” value ([1]; adenosine 20 mpk IP, haloperidol 0.5 mpk PO) was 0/6, the “depression induced by the adenosine” value ([1]; monkey, in vivo) was “induced depression prior to the expected time of onset of the effects of haloperidol” and the “onset of action (depression)” value ([1]; monkey, in vivo, ip) was 5 to 10 min. The “prevention of dystonia (conclusion)” value ([1]; sensitized Cebus monkeys, adenosine administered prior to haloperidol) was “prevented the dystonia normally produced by haloperidol”, the “effect on development or severity of dystonias (in words)” value ([2]; Cebus monkey, adenosine together with haloperidol orally by capsule) was “did not appreciably affect the development or severity of dystonias” and the “animals with marked reduction in the severity of dystonia” value ([2]; adenosine 5 mg/kg PO + haloperidol 0.5 mg/kg in a solution by gavage) was 4 of 5. The “# showing dystonia/Total” value ([2]; adenosine 5 mpk PO capsule) was 5/6, the “prevention of dystonia, same capsule (conclusion)” value ([2]; adenosine and haloperidol in the same capsule) was “did not prevent dystonia induced by haloperidol” and the monkeys with dystonia ([2]; haloperidol 0.5 mg/kg with adenosine 5 mg/kg in a capsule) was 5 of 6. The “severity of dystonia, gavage (conclusion)” value ([2]; solution of adenosine and haloperidol by gavage) was “reduced severity of dystonia”.
